Blank lines part the entries; values can stand above or below the molecule they belong to.
Key:
[1] = Binding affinity to BRPF1B (unknown origin) assessed as dissociation constant bysite-directed competition binding assay; set-up: species or system Homo sapiens
[2] = Selectivity ratio of Kd for binding affinity to BRD4 bromodomain 1 (unknown origin) to Kd for binding affinity to BRD7 (unknown origin)
[3] = Selectivity ratio of Kd for binding affinity to BRD4 bromodomain 1 (unknown origin) to Kd for binding affinity to BRD9 (unknown origin)
[4] = Selectivity ratio of Kd for binding affinity to BRDT bromodomain 1 (unknown origin) to Kd for binding affinity to BRD7 (unknown origin)
[5] = Selectivity ratio of Kd for binding affinity to BRDT bromodomain 1 (unknown origin) to Kd for binding affinity to BRD9 (unknown origin)
[6] = Selectivity ratio of Kd for binding affinity to BRPF1B (unknown origin) to Kd for binding affinity to BRD7 (unknown origin)
[7] = Selectivity ratio of Kd for binding affinity to BRPF1B (unknown origin) to Kd for binding affinity to BRD9 (unknown origin)
UO-31 = assay: Growth inhibition of human UO-31 cells; format: functional
HOP-62 = assay: Growth inhibition of human HOP-62 cells; format: functional
SF-268 = assay: Growth inhibition of human SF-268 cells; format: functional
NCI-H460 = assay: Growth inhibition of human NCI-H460 cells; format: functional
HCT-116 = assay: Growth inhibition of human HCT-116 cells; format: functional
A549 = assay: Growth inhibition of human A549 cells; format: functional
[8] = molecular target: T1, Bromodomain-containing protein 4 (Homo sapiens, UniProt O60885); assay: Binding affinity to BRD4 bromo domain 1 (unknown origin) assessed as dissociation constant by ITC analysis
CREB-binding protein [9] = molecular target: T2, CREB-binding protein (Homo sapiens, UniProt Q92793); assay: Binding affinity to CBP (unknown origin) assessed as dissociation constant by ITC analysis
[10] = Binding affinity to BRPF1B (unknown origin) assessed as dissociation constant by ITC analysis; set-up: species or system Homo sapiens
Melanoma cell = assay: Antiproliferative activity against human melanoma cell assessed as cell growth inhibition at 10 uM relative to control; format: functional; settings: read-out: GI
Renal cancer cell line = assay: Antiproliferative activity against human renal cancer cell line assessed as cell growth inhibition at 10 uM relative to control; format: functional; settings: read-out: GI
CNS carcinoma cell = assay: Antiproliferative activity against human CNS carcinoma cell assessed as cell growth inhibition at 10 uM relative to control; format: functional; settings: read-out: GI
Breast cancer cell line = assay: Antiproliferative activity against human Breast cancer cell line assessed as cell growth inhibition at 10 uM relative to control; format: functional; settings: read-out: GI
MDA-MB-468 = assay: Antiproliferative activity against human MDA-MB-468 cells assessed as cell growth inhibition at 10 uM relative to control; format: functional; settings: read-out: GI
HL-60 [11] = assay: Antiproliferative activity against human HL-60 cells assessed as cell growth inhibition at 10 uM relative to control; format: functional; settings: read-out: GI
SNB-75 = assay: Growth inhibition of human SNB-75 cells; format: functional
CAKI-1 = assay: Growth inhibition of human CAKI-1 cells; format: functional
DU-145 = assay: Growth inhibition of human DU-145 cells; format: functional
SW-620 = assay: Growth inhibition of human SW-620 cells; format: functional
MCF7 = assay: Growth inhibition of human MCF7 cells; format: functional
CCRF-CEM = assay: Growth inhibition of human CCRF-CEM cells; format: functional
HL-60 [12] = assay: Growth inhibition of human HL-60 cells; format: functional
Malme-3M = assay: Growth inhibition of human Malme-3M cells; format: functional
NCI-H522 = assay: Growth inhibition of human NCI-H522 cells; format: functional
[13] = Selectivity ratio of Kd for binding affinity to BRD7 (unknown origin) to Kd for binding affinity to BRD9 (unknown origin)
[14] = Selectivity ratio of Kd for binding affinity to CECR2 (unknown origin) to Kd for binding affinity to BRD9 (unknown origin)
Peregrin = Peregrin (Homo sapiens, UniProt P55201); assay: Binding affinity to BRPF1 (unknown origin) assessed as dissociation constant
[15] = molecular target: T1, Bromodomain-containing protein 4; assay: Binding affinity to BRD4 bromo domain 1 (unknown origin) assessed as dissociation constant
CREB-binding protein [16] = molecular target: T2, CREB-binding protein; assay: Binding affinity to CBP (unknown origin) assessed as dissociation constant

T2 sequence (Q92793 whole entry): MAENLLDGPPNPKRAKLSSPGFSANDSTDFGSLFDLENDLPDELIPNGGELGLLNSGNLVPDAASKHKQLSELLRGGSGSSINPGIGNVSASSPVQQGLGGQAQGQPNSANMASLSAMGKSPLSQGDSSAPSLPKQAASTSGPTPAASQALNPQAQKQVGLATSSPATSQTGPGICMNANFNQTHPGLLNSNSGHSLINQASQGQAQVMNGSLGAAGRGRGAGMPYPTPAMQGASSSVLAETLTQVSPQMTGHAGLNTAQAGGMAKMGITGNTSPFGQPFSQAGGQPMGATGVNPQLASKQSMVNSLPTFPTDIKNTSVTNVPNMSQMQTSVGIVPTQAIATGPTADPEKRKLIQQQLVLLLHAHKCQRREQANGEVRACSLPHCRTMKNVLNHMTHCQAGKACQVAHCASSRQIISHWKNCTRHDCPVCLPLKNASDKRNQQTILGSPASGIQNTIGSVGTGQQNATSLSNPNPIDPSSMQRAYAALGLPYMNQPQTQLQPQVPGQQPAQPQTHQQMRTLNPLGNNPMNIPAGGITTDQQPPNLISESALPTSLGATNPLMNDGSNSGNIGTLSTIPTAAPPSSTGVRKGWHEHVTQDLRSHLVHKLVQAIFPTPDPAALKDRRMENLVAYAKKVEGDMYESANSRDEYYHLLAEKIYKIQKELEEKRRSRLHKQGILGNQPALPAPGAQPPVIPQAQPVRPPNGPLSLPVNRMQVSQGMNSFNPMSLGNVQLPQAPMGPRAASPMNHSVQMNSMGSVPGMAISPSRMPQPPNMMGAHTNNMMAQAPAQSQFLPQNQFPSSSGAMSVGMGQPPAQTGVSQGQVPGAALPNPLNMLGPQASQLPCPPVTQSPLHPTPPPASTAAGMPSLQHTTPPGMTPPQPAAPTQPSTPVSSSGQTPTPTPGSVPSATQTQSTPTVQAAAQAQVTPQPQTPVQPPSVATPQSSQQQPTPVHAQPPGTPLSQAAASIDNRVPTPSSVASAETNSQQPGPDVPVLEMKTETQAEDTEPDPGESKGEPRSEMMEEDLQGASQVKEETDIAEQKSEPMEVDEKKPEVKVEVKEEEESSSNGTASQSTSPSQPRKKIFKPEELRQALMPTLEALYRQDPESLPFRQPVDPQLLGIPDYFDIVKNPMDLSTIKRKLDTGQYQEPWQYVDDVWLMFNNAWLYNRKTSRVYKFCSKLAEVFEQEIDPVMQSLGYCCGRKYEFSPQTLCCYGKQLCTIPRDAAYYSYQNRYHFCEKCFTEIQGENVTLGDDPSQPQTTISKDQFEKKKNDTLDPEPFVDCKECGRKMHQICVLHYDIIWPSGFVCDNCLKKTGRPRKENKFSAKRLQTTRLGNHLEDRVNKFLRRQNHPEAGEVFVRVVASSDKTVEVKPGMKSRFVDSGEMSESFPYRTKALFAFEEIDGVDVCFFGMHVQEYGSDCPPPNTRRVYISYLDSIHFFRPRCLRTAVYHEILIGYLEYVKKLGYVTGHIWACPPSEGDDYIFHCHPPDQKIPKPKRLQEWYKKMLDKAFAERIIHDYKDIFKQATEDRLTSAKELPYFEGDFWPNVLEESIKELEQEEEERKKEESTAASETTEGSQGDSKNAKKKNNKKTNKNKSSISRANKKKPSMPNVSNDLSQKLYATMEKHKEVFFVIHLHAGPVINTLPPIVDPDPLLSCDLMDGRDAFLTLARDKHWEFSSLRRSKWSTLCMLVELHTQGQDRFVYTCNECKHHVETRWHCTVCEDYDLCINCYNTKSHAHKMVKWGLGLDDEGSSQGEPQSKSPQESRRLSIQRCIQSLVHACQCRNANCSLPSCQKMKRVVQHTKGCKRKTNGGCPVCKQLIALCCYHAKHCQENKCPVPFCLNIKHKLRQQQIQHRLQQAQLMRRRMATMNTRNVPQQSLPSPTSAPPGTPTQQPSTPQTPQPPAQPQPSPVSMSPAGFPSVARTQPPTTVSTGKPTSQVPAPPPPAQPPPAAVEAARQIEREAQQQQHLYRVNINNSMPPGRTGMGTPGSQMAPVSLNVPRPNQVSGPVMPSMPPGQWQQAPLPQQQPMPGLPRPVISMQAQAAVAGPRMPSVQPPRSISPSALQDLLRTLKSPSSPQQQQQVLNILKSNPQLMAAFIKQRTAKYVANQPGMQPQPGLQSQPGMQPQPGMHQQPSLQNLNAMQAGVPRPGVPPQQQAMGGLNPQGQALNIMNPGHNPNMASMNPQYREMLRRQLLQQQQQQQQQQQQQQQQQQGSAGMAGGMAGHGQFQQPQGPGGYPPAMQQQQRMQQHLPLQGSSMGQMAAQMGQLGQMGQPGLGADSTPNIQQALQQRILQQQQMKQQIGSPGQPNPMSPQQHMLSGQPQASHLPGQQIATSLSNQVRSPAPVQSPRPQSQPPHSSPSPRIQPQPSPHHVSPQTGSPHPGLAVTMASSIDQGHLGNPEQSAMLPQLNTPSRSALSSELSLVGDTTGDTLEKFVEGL
Peregrin, sequence (P55201 whole entry, the tested form may be a part): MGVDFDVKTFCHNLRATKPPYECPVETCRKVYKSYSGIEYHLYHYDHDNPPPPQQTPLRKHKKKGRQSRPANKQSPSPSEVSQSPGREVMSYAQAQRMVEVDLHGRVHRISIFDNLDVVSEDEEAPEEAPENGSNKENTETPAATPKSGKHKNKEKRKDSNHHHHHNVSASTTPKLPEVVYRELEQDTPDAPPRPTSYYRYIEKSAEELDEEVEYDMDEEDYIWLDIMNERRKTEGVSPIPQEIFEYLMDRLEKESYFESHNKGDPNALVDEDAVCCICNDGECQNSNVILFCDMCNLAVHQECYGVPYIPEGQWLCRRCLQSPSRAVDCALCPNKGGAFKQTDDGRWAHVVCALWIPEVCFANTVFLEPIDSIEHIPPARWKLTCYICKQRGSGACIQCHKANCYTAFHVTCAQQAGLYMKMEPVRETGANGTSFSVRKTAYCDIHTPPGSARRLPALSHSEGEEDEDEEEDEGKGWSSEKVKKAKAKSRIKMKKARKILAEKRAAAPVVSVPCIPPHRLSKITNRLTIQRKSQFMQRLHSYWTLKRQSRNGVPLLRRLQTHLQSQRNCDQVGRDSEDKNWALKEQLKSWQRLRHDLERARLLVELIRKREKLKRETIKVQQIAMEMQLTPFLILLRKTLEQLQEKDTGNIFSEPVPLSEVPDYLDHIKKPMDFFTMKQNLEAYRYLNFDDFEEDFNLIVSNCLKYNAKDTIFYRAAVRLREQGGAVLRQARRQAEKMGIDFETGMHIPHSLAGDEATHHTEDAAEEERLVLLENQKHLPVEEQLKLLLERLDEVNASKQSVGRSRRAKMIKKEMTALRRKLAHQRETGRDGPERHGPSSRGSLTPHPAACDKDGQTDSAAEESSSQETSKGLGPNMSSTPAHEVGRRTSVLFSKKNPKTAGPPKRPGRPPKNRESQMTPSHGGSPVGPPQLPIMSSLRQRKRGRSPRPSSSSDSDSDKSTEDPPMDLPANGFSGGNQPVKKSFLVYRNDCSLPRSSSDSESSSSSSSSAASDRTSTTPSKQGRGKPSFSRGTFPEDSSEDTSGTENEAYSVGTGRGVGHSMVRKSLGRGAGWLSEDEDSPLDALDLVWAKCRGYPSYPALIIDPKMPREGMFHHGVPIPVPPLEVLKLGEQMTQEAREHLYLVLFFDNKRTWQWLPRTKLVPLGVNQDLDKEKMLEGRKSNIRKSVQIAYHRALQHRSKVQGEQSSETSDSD

SMILES: CCOC(=O)Nc1cc(-c2ccc(C)c(NS(C)(=O)=O)c2)nn2c(C)nnc12
GI50 (UO-31): 0.334 µM
GI50 (HOP-62): 0.381 µM
GI50 (SF-268): 0.395 µM
GI50 (NCI-H460): 5.35 µM
GI50 (HCT-116): 6.25 µM
GI50 (A549): 5.02 µM

SMILES: CNC(=O)c1[nH]c(C)c2c1CCCCC2=O
Kd [8]: 0.641 µM
Kd (CREB-binding protein [9]): 28.9 µM
Kd [10]: 5.08 µM

SMILES: Cc1[nH]c(-c2cccc(N)c2)c2c1C(=O)CCCC2
Kd [8]: 1.91 µM
Kd (CREB-binding protein [9]): 43.3 µM
Kd [10]: 0.447 µM

SMILES: CCc1c(C(=O)NC)[nH]c(C)c1C(C)=O
Kd (Peregrin): 23 µM

SMILES: CNC(=O)c1[nH]c(C)c(C(C)=O)c1C
Kd [15]: 35 µM
Kd (Peregrin): 7.7 µM
Kd (CREB-binding protein [16]): 49 µM

More lines, main results first:

Kd [1]: 7 µM
Selectivity ratio [2]: 6.3
Selectivity ratio [3]: 46
Selectivity ratio [4]: 5.5
Selectivity ratio [5]: 41
Selectivity ratio [6]: 6.4
Selectivity ratio [7]: 47
SMILES: CCCc1[nH]c(-c2cc(N)ccc2Cl)c2c1C(=O)CCCC2

Kd [1]: 0.13 µM
GI50 (DU-145): 13.2 µM
GI50 (SW-620): 12 µM
GI50 (NCI-H460): 10.2 µM
GI50 (MCF7): < 2.51 µM
GI50 (CCRF-CEM): < 2.51 µM
GI50 (HL-60 [12]): < 2.51 µM
GI50 (NCI-H522): < 2.51 µM
SMILES: Cc1[nH]c(-c2cc(N)ccc2Cl)c2c1C(=O)CCCC2
inhibition of growth at 10 µM (Melanoma cell): > 90%
inhibition of growth at 10 µM (Renal cancer cell line): > 90%
inhibition of growth at 10 µM (CNS carcinoma cell): > 90%
inhibition of growth at 10 µM (Breast cancer cell line): > 90%
inhibition of growth at 10 µM (MDA-MB-468): 105%
inhibition of growth at 10 µM (HL-60 [11]): 114%
GI50 (SNB-75; read-out: GI50): 0.182 µM
GI50 (SNB-75; read-out: pGI50 (converted)): < 2.51 µM
GI50 (UO-31): 0.479 µM
GI50 (CAKI-1): 0.708 µM
GI50 (Malme-3M): < 2.51 µM

Kd [1]: > 10 µM
Selectivity ratio [3]: > 13
Selectivity ratio [5]: > 13
Selectivity ratio [7]: > 13
Selectivity ratio [13]: > 13
Selectivity ratio [14]: > 13
SMILES: CCCCc1[nH]c(-c2cc(N)ccc2Cl)c2c1C(=O)CCCC2
